Assay results from ChEMBL document CHEMBL5120880, “Peptidomimetics: An Overview of Recent Medicinal Chemistry Efforts toward the Discovery of Novel Small Molecule Inhibitors” (J Med Chem, 2022).
Converted amounts (≈) assume the structure as drawn.

Assays:
Escherichia coli = experiment: Antibacterial activity against Escherichia coli AG100 assessed as minimal inhibitory concentration; type: functional
[1] = Inhibition of Acinetobacter baumannii […] assessed as measuring NADH consumption rate
Acinetobacter baumannii = experiment: Antibacterial activity against Acinetobacter baumannii ATCC BAA1605 assessed as minimal inhibitory concentration; type: functional
[2] = biological target: T1, Enoyl-[acyl-carrier-protein] reductase [NADH] FabI (Escherichia coli K-12, UniProt P0AEK4); experiment: Inhibition of Escherichia coli […] assessed as measuring NADH consumption rate
T1 sequence (P0AEK4 whole entry): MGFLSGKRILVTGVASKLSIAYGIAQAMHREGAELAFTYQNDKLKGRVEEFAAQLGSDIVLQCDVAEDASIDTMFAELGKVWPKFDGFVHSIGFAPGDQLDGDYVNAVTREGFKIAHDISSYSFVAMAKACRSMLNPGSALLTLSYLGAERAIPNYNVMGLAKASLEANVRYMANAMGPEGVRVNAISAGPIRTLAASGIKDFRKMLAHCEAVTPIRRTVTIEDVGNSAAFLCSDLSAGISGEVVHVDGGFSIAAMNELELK

[3] = tested on: Klebsiella pneumoniae subsp. ozaenae; experiment: Antibacterial activity against Klebsiella pneumoniae A6030827 assessed as minimal inhibitory concentration; type: functional
Staphylococcus aureus = experiment: Antibacterial activity against Staphylococcus aureus ATCC 29213 assessed as minimal inhibitory concentration; type: functional
Hepatitis C virus [4] = experiment: Antiviral activity against HCV genotype 1b/3a NS5A infected in human Huh-7 cells by phenotypic assay; type: functional, organism-based, Hepacivirus hominis
Hepatitis C virus [5] = experiment: Antiviral activity against HCV genotype 1b/6a NS5A infected in human Huh-7 cells by phenotypic assay; type: functional, organism-based, Hepacivirus hominis
Murine hepatitis virus = experiment: microbe, parasite or virus in culture; conditions: Murine coronavirus
[6] = tested on: Feline infectious peritonitis virus; experiment: microbe, parasite or virus in culture; conditions: Alphacoronavirus 1
SARS-CoV-2 [7] = experiment: microbe, parasite or virus in culture; conditions: Severe acute respiratory syndrome coronavirus 2
SARS-CoV-2 [8] = experiment: Antiviral activity against SARS-CoV-2 by cell based assay; type: functional, organism-based; conditions: Severe acute respiratory syndrome coronavirus 2
[9] = tested on: Middle East respiratory syndrome-related coronavirus; experiment: microbe, parasite or virus in culture
SARS-CoV = experiment: microbe, parasite or virus in culture; conditions: Severe acute respiratory syndrome-related coronavirus
[10] = tested on: Middle East respiratory syndrome-related coronavirus; experiment: Antiviral activity against MERS-CoV by cell based assay; type: functional, organism-based

Compound | MIC (Escherichia coli) | MIC (Acinetobacter baumannii) | MIC (Staphylococcus aureus) | EC50 (Murine hepatitis virus) | EC50 [6] | IC50 (SARS-CoV-2 [7]) | also measured
Cc1c(CN(C)C(=O)/C=C/c2cnc3c(c2)NC[C@@H](N)C(=O)N3)oc2ccccc12.Cl | < 4 µg/mL | < 4 µg/mL | < 4 µg/mL | – | – | – | IC50 [1]: < 10 nM; IC50 [2]: < 10 nM; MIC [3]: < 4 µg/mL
Cc1c(CN(C)C(=O)/C=C/c2cnc3c(c2)NC[C@@H](N2C[C@@H](C)O[C@@H](C)C2)C(=O)N3)oc2ccccc12 | – | ≤ 4 µg/mL | ≤ 4 µg/mL | – | – | – | IC50 [2]: < 10 nM; MIC [3]: 16 µg/mL (≈ 31.8 µM)
COC(=O)N[C@H](C(=O)N1CCC[C@H]1c1ncc(-c2ccc(-c3ccc(-c4cnc([C@@H]5CCCN5C(=O)[C@@H](NC(=O)OC)C(C)C)[nH]4)cc3)cc2)[nH]1)C(C)C | – | – | – | – | – | – | EC50 (Hepatitis C virus [4]): 0.105 nM; EC50 (Hepatitis C virus [5]): 0.047 nM
CCCCC1CCC(OC(=O)N[C@@H](CC(C)C)C(=O)N[C@H](C=O)C[C@H]2CCNC2=O)CC1 (stereo partly specified) | – | – | – | 120 nM | 220 nM | 800 nM | EC50 (SARS-CoV-2 [8]): 100 nM; IC50 [9]: 150 nM; IC50 (SARS-CoV): 900 nM
CC(C)C[C@H](NC(=O)OCC1CCC(F)(F)CC1)C(=O)N[C@H](C=O)C[C@H]1CCNC1=O | – | – | – | – | 80 nM | 900 nM | EC50 [10]: 30 nM
Cc1c(CN(C)C(=O)/C=C/c2cnc3c(c2)N[C@H](C)[C@H](N)C(=O)N3)oc2ccccc12 | ≤ 4 µg/mL | ≤ 4 µg/mL | ≤ 4 µg/mL | – | – | – | IC50 [1]: < 10 nM
Cc1c(CN(C)C(=O)/C=C/c2cnc3c(c2)CC[C@@H](N)C(=O)N3)oc2ccccc12.Cl | ≤ 4 µg/mL | ≤ 4 µg/mL | ≤ 4 µg/mL | – | – | – | IC50 [1]: < 10 nM; IC50 [2]: < 10 nM; MIC [3]: ≤ 4 µg/mL
COC(=O)N[C@H](C(=O)N1CCC[C@@H]1c1ncc(-c2cccc(-c3c4c(c(-c5cccc(-c6cnc([C@@H]7CCCN7C(=O)[C@H](NC(=O)OC)c7ccccc7)[nH]6)c5)c5c3C(C)(C)CC5)C(C)(C)CC4)c2)[nH]1)c1ccccc1 | – | – | – | – | – | – | EC50 (Hepatitis C virus [4]): 0.053 nM
CCCCC1CCC(OC(=O)N[C@@H](CC(C)C)C(=O)N[C@@H](C[C@H]2CCNC2=O)C(O)S(=O)(=O)O)CC1 (stereo partly specified) | – | – | – | 130 nM | 170 nM | 1100 nM | EC50 [10]: 530 nM; IC50 [9]: 130 nM; IC50 (SARS-CoV): 1000 nM
Cc1oc2c(N)cccc2c1CN(C)C(=O)/C=C/c1cnc2c(c1)N[C@H](C)[C@H](N)C(=O)N2 | ≤ 4 µg/mL | ≤ 4 µg/mL | ≤ 4 µg/mL | – | – | – | IC50 [1]: < 10 nM
Cc1c(CN(C)C(=O)/C=C/c2cnc3c(c2)CC[C@@H](N2CCCC2)C(=O)N3)oc2ccccc12 | ≤ 4 µg/mL | ≤ 4 µg/mL | ≤ 4 µg/mL | – | – | – | IC50 [1]: < 10 nM; IC50 [2]: < 10 nM; MIC [3]: ≤ 4 µg/mL
CC(C)C[C@H](NC(=O)OC1CCC(F)(F)CC1)C(=O)N[C@H](C=O)C[C@H]1CCNC1=O | – | – | – | 80 nM | 120 nM | 1500 nM | EC50 (SARS-CoV-2 [8]): 110 nM; IC50 [9]: 70 nM; IC50 (SARS-CoV): 2300 nM
Cc1oc2c(N)cccc2c1CN(C)C(=O)/C=C/c1cnc2c(c1)CCC(N1CCCC1)C(=O)N2 (stereo unspecified) | 8 µg/mL (≈ 16.9 µM) | ≤ 4 µg/mL | ≤ 4 µg/mL | – | – | – | IC50 [2]: < 10 nM
CC(C)C[C@H](NC(=O)OC1CCC(F)(F)CC1)C(=O)N[C@@H](C[C@H]1CCNC1=O)C(O)S(=O)(=O)O (stereo partly specified) | – | – | – | 110 nM | 120 nM | 1600 nM | EC50 [10]: 210 nM; IC50 [9]: 80 nM; IC50 (SARS-CoV): 2200 nM
CC(C)C[C@H](NC(=O)OC1CCCCC1)C(=O)N[C@@H](C[C@H]1CCNC1=O)C(O)S(=O)(=O)O (stereo partly specified) | – | – | – | 80 nM | 70 nM | 3500 nM | EC50 [10]: 80 nM; IC50 [9]: 150 nM; IC50 (SARS-CoV): 3800 nM
COC(=O)N[C@@H](C(=O)N1CCC[C@H]1C(=O)Nc1cncc(-c2c3c(c(-c4cncc(NC(=O)[C@@H]5CCCN5C(=O)[C@H](NC(=O)OC)c5ccccc5)c4)c4c2C(C)(C)CC4)C(C)(C)CC3)c1)c1ccccc1 | – | – | – | – | – | – | EC50 (Hepatitis C virus [5]): > 0.5 nM
CCCC1CCC(OC(=O)N[C@@H](CC(C)C)C(=O)N[C@H](C=O)C[C@H]2CCNC2=O)CC1 (stereo partly specified) | – | – | – | 130 nM | 120 nM | 1600 nM | EC50 [10]: 50 nM; EC50 (SARS-CoV-2 [8]): 100 nM
